Data published in US10882882B2, “Post fermented tea-derived kaempferol-based compound” (AMOREPACIFIC CORPORATION, priority 2016, dated 2021).

Biological target: T1, beta amyloid (Aβ1-42) (Homo sapiens, UniProt P05067)
T1 construct: beta amyloid (Aβ1-42, AnaSpec Inc, USA); purchased AnaSpec Inc, USA
Assay: Inhibition of beta amyloid aggregation, fluorescence analysis (ThioflavinT assay)
Format: biochemical
Conditions: for Increased RFU (% of Pos. Cont.): Pos. Cont. (beta amyloid only) = 100; for inhibition of beta amyloid aggregation as compared with the positive control group: positive control (only beta amyloid, no compound) taken as 100%
Experimental: The effect of kaempferol3-O-[2-O″-(E)-p-coumaroyl][beta-D-glucopyranosyl-(1→3)-O-alpha-L-rhamnopyranosyl-(1→6)-O-beta-D-glucopyranoside] on inhibition of beta amyloid aggregation was confirmed by the fluorescence analysis (ThioflavinT assay). Specifically, beta amyloid (Aβ1-42, AnaSpec Inc, USA) was obtained and used at a concentration of 0.1 mg/ml and stored at −80° C. before use. Morin (20 μM), phenol red (20 μM), and kaempferol3-O-[2-O″-(E)-p-coumaroyl][beta-D-glucopyranosyl-(1→3)-O-alpha-L-rhamnopyranosyl-(1→6)-O-beta-D-glucopyranoside] (1 mg/ml) were respectively diluted with DMSO so as to be adjusted to the concentrations. In order to specify the degree of inhibition of Aβ1-42 aggregation, each of the compounds prepared at the above concentrations was diluted with 50 μL of 0.01 M sodium phosphate buffer solution to have a concentration of 10 μM, then 40 μL of 0.1 mg/ml of Aβ1-42 was added thereto, and then 10 μl of 2 mM thioflavinT was added thereto, and fluorescence was measured using a fluorescence spectrometer (RF-5300PC, SHIMADZU CORPORATION, Japan) at 37° C. for 150 minutes at intervals of 5 minutes. In the above table, “RFU” denotes the relative fluorescence unit, and “Increased RFU” denotes the amount of aggregated beta amyloid, and “Increased RFU (% of Pos.Cont.)” denotes the percentage value of the amount of aggregated beta amyloid with respect to that of the positive control group. “Novel substance 33” denotes kaempferol3-O-[2-O″-(E)-p-coumaroyl][beta-D-glucopyranosyl-(1→3)-O-alpha-L-rhamnopyranosyl-(1→6)-O-beta-D-glucopyranoside].

[1] = compound 10 μM, Aβ1-42 0.1 mg/ml, 37° C., 150 minutes

T1 sequence (P05067 672-713 limits assumed): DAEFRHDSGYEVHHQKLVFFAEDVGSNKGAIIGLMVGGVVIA

Increased RFU (% of Pos. Cont.) [1] [%] | inhibition of beta amyloid aggregation as compared with the positive control group [%] | Increased RFU (amount of aggregated beta amyloid) (compound 10 μM, Aβ1-42 0.1 mg/ml, thioflavinT, 37° C., 150 minutes) [RFU] | Structure (SMILES)
93.6 | 6.4 |  | O=S1(=O)OC(c2ccc(O)cc2)(c2ccc(O)cc2)c2ccccc21 [Phenol Red]
78.6 | 21.4 | 11471 | O=c1c(O)c(-c2ccc(O)cc2O)oc2cc(O)cc(O)c12 [Morin]
